According to patent US10385057B2, “Pyrazole compounds and methods of making and using same” (Lundbeck La Jolla Research Center, Inc., priority 2015, dated 2019):

Key:
FAAH = target: T1, FAAH (Mus musculus, UniProt O08914); test: In vitro competitive activity-based protein profiling, mouse FAAH; format: biochemical; settings: for inhibition at 1 µM: read-out: FAAH % inh. 1 μM (mouse); for inhibition at 10 µM: read-out: FAAH % inh. at 10 μM (mouse)
T1 construct: mouse brain membrane fraction or cell lysates for mouse assays; from tissue
T1 sequence (O08914 1-579): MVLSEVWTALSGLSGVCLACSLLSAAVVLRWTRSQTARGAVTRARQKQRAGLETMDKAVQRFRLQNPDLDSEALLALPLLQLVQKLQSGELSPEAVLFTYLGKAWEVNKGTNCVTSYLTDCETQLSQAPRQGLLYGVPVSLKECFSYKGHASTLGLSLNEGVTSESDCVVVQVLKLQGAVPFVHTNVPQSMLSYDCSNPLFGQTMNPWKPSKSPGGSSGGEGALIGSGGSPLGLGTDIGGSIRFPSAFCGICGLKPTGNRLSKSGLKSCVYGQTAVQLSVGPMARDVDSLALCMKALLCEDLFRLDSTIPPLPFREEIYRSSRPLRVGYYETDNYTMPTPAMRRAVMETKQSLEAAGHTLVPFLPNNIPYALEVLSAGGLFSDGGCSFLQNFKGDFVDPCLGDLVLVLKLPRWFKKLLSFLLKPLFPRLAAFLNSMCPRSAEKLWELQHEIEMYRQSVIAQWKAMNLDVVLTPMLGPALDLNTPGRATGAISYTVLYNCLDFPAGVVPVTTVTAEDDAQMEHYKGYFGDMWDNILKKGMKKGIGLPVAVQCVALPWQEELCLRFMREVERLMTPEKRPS
Procedure: (§1) In Vitro Competitive Activity-Based Protein Profiling.
(§2) Proteomes (mouse brain membrane fraction or cell lysates for mouse assays; human prefrontal cortex or cell membrane fractions for human assays) (50 μL, 1.0 mg/mL total protein concentration) were preincubated with varying concentrations of inhibitors at 37° C. After 30 min, FP-Rh or HT-01 (1.0 μL, 50 μM in DMSO) was added and the mixture was incubated for another 30 min at 37° C. Reactions were quenched with SDS loading buffer (15 μL—4×) and run on SDS-PAGE. Following gel imaging, serine hydrolase activity was determined by measuring fluorescent intensity of gel bands corresponding to MAGL and FAAH using ImageJ 1.43u software.

MAGL = target: T2, MAGL (Mus musculus, UniProt O35678); test: In vitro competitive activity-based protein profiling, mouse MAGL; format: biochemical; settings: for inhibition at 1 µM: read-out: MAGL % inh. 1 μM (mouse); for inhibition at 10 µM: read-out: MAGL % inh. at 10 μM (mouse)
T2 construct: mouse brain membrane fraction or cell lysates for mouse assays; from tissue
T2 sequence (O35678 1-303): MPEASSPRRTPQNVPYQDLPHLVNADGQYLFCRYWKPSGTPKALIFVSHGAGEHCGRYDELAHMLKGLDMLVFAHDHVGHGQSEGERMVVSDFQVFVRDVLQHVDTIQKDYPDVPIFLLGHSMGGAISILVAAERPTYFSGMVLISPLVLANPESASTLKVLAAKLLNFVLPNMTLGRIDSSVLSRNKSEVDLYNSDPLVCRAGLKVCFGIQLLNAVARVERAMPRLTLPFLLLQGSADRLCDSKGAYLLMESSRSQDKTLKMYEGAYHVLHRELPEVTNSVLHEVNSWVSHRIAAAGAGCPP
Procedure: as §1, §2

| IC50 (FAAH) [µM] | inhibition at 1 µM (FAAH) [%] | IC50 (MAGL) [µM] | inhibition at 1 µM (MAGL) [%] | inhibition at 10 µM (FAAH) [%] | inhibition at 10 µM (MAGL) [%] | SMILES |
| --- | --- | --- | --- | --- | --- | --- |
| ≤ 0.1 | ≥ 75 | 0.1 to 1 | ≥ 75 | – | – | CNC(=O)c1cnn(C(=O)N2CC3CN(Cc4ccc(C(F)(F)F)cc4)CC3C2)c1 (stereo not shown) [Example 19, N-methyl-1-(5-(4-(trifluoromethyl)benzyl)octahydropyrrolo[3,4-c]pyrrole-2-carbonyl)-1H-pyrazole-4-carboxamide] |
| ≤ 0.1 | ≥ 75 | ≤ 0.1 | ≥ 75 | – | – | NC(=O)c1cnn(C(=O)N2CC3CN(Cc4cc(Cl)ccc4Cl)CC3C2)c1 (stereo not shown) [Example 20, 1-(5-(2,5-dichlorobenzyl)octahydropyrrolo[3,4-c]pyrrole-2-carbonyl)-1H-pyrazole-4-carboxamide] |
| ≤ 0.1 | ≥ 75 | 0.1 to 1 | ≥ 75 | – | – | CNC(=O)c1cnn(C(=O)N2CC3CN(Cc4cc(Cl)ccc4Cl)CC3C2)c1 (stereo not shown) [Example 21, 1-(5-(2,5-dichlorobenzyl)octahydropyrrolo[3,4-c]pyrrole-2-carbonyl)-N-methyl-1H-pyrazole-4-carboxamide] |
| – | ≥ 75 | – | ≥ 75 | – | – | O=C(c1cnn(C(=O)N2CC3CN(Cc4cc(Cl)ccc4Cl)CC3C2)c1)N1CCCC1 (stereo not shown) [Example 22, (5-(2,5-dichlorobenzyl)hexahydropyrrolo[3,4-c]pyrrol-2(1H)-yl)(4-(pyrrolidine-1-carbonyl)-1H-pyrazol-1-yl)methanone] |
| – | ≥ 75 | – | ≥ 75 | – | – | NC(=O)c1cnn(C(=O)N2CC3CN(Cc4cccc(C(F)(F)F)c4)CC3C2)c1 (stereo not shown) [Example 23, 1-(5-(3-(trifluoromethyl)benzyl)octahydropyrrolo[3,4-c]pyrrole-2-carbonyl)-1H-pyrazole-4-carboxamide] |
| ≤ 0.1 | ≥ 75 | ≤ 0.1 | ≥ 75 | – | – | CNC(=O)c1cnn(C(=O)N2CC3CN(Cc4cccc(C(F)(F)F)c4)CC3C2)c1 (stereo not shown) [Example 24, N-methyl-1-(5-(3-(trifluoromethyl)benzyl)octahydropyrrolo[3,4-c]pyrrole-2-carbonyl)-1H-pyrazole-4-carboxamide] |
| ≤ 0.1 | ≥ 75 | ≤ 0.1 | ≥ 75 | – | – | NC(=O)c1cnn(C(=O)N2CC3CN(Cc4cc(Cl)cc(C(F)(F)F)c4)CC3C2)c1 (stereo not shown) [Example 25, 1-(5-(3-chloro-5-(trifluoromethyl)benzyl)octahydropyrrolo[3,4-c]pyrrole-2-carbonyl)-1H-pyrazole-4-carboxamide] |
| – | ≥ 75 | – | ≥ 75 | – | – | CNC(=O)c1cnn(C(=O)N2CC3CN(Cc4cc(Cl)cc(C(F)(F)F)c4)CC3C2)c1 (stereo not shown) [Example 26, 1-(5-(3-chloro-5-(trifluoromethyl)benzyl)octahydropyrrolo[3,4-c]pyrrole-2-carbonyl)-N-methyl-1H-pyrazole-4-carboxamide] |
| – | ≥ 75 | – | ≥ 75 | – | – | CNC(=O)c1cnn(C(=O)N2CC3CN(Cc4ccc(N5CCOCC5)cc4C(F)(F)F)CC3C2)c1 (stereo not shown) [Example 27, N-methyl-1-(5-(4-morpholino-2-(trifluoromethyl)benzyl)octahydropyrrolo[3,4-c]pyrrole-2-carbonyl)-1H-pyrazole-4-carboxamide] |
| – | ≥ 75 | – | 25 to 50 | – | – | O=C(c1cnn(C(=O)N2CCC3(CCN(Cc4cc(Cl)ccc4Cl)C3)C2)c1)N1CCCC1 (stereo not shown) [Example 28, (1-(7-(2,5-dichlorobenzyl)-2,7-diazaspiro[4.4]nonane-2-carbonyl)-1H-pyrazol-4-yl)(pyrrolidin-1-yl)methanone] |
| – | ≥ 75 | – | 0 to 25 | 100 | 100 | O=C(c1cnn(C(=O)N2CCC3(CCN(Cc4cc(Cl)ccc4Cl)C3)C2)c1)N1CCOCC1 (stereo not shown) [Example 29, (1-(7-(2,5-dichlorobenzyl)-2,7-diazaspiro[4.4]nonane-2-carbonyl)-1H-pyrazol-4-yl)(morpholino)methanone] |
| – | ≥ 75 | – | ≥ 75 | – | – | O=C(c1cnn(C(=O)N2CCC3(CCN(Cc4cc(Cl)ccc4Cl)C3)C2)c1)N1CCN(C2CC2)CC1 (stereo not shown) [Example 30, (4-cyclopropylpiperazin-1-yl)(1-(7-(2,5-dichlorobenzyl)-2,7-diazaspiro[4.4]nonane-2-carbonyl)-1H-pyrazol-4-yl)methanone] |
| – | ≥ 75 | – | 25 to 50 | – | – | O=C(c1cnn(C(=O)N2CCC3(CCN(Cc4cccc(C(F)(F)F)c4)C3)C2)c1)N1CCCC1 (stereo not shown) [Example 31, pyrrolidin-1-yl(1-(7-(3-(trifluoromethyl)benzyl)-2,7-diazaspiro[4.4]nonane-2-carbonyl)-1H-pyrazol-4-yl)methanone] |
| – | ≥ 75 | – | 0 to 25 | 100 | 50 | O=C(c1cnn(C(=O)N2CCC3(CCN(Cc4cccc(C(F)(F)F)c4)C3)C2)c1)N1CCOCC1 (stereo not shown) [Example 32, (4-(morpholine-4-carbonyl)-1H-pyrazol-1-yl)(7-(3-(trifluoromethyl)benzyl)-2,7-diazaspiro[4.4]nonan-2-yl)methanone] |
| – | 50 to 75 | – | ≥ 75 | – | – | O=C(c1cnn(C(=O)N2CCC3(CCN(Cc4cccc(C(F)(F)F)c4)C3)C2)c1)N1CCN(C2CC2)CC1 (stereo not shown) [Example 33, (4-cyclopropylpiperazin-1-yl)(1-(7-(3-(trifluoromethyl)benzyl)-2,7-diazaspiro[4.4]nonane-2-carbonyl)-1H-pyrazol-4-yl)methanone] |
| – | ≥ 75 | – | ≥ 75 | – | – | O=C(c1cnn(C(=O)N2CCC3(CCN(Cc4cc(Cl)cc(C(F)(F)F)c4)C3)C2)c1)N1CCCC1 (stereo not shown) [Example 34, (1-(7-(3-chloro-5-(trifluoromethyl)benzyl)-2,7-diazaspiro[4.4]nonane-2-carbonyl)-1H-pyrazol-4-yl)(pyrrolidin-1-yl)methanone] |
| – | 25 to 50 | – | ≥ 75 | – | – | O=C(c1cnn(C(=O)N2CCC3(CCN(Cc4cc(Cl)cc(C(F)(F)F)c4)C3)C2)c1)N1CCOCC1 (stereo not shown) [Example 35, (1-(7-(3-chloro-5-(trifluoromethyl)benzyl)-2,7-diazaspiro[4.4]nonane-2-carbonyl)-1H-pyrazol-4-yl)(morpholino)methanone] |
| – | ≥ 75 | – | ≥ 75 | – | – | O=C(c1cnn(C(=O)N2CCC3(CCN(Cc4cc(Cl)cc(C(F)(F)F)c4)C3)C2)c1)N1CCN(C2CC2)CC1 (stereo not shown) [Example 36, (1-(7-(3-chloro-5-(trifluoromethyl)benzyl)-2,7-diazaspiro[4.4]nonane-2-carbonyl)-1H-pyrazol-4-yl)(4-cyclopropylpiperazin-1-yl)methanone] |
| ≤ 0.1 | ≥ 75 | 1 to 10 | 50 to 75 | – | – | NC(=O)c1cnn(C(=O)N2CCC3(CCN(Cc4ccc(Cl)cc4)C3)C2)c1 (stereo not shown) [Example 37, 1-(7-(4-chlorobenzyl)-2,7-diazaspiro[4.4]nonane-2-carbonyl)-1H-pyrazole-4-carboxamide] |
| 0.1 to 1 | ≥ 75 | 1 to 10 | 0 to 25 | – | – | CNC(=O)c1cnn(C(=O)N2CCC3(CCN(Cc4ccc(Cl)cc4)C3)C2)c1 (stereo not shown) [Example 38, 1-(7-(4-chlorobenzyl)-2,7-diazaspiro[4.4]nonane-2-carbonyl)-N-methyl-1H-pyrazole-4-carboxamide] |
| – | ≥ 75 | – | ≥ 75 | – | – | CNC(=O)c1cnn(C(=O)N2CCC3(CCN(Cc4cc(Cl)ccc4Cl)C3)C2)c1 (stereo not shown) [Example 40, 1-(7-(2,5-dichlorobenzyl)-2,7-diazaspiro[4.4]nonane-2-carbonyl)-N-methyl-1H-pyrazole-4-carboxamide] |
| – | ≥ 75 | – | 0 to 25 | 100 | 100 | CNC(=O)c1cnn(C(=O)N2CCC3(CCN(Cc4cccc(C(F)(F)F)c4)C3)C2)c1 (stereo not shown) [Example 42, N-methyl-1-(7-(3-(trifluoromethyl)benzyl)-2,7-diazaspiro[4.4]nonane-2-carbonyl)-1H-pyrazole-4-carboxamide] |
